For data set [1], the system named is Dengue-2 (Strain New Guinea C). In words: Dengue-2 viral yield assay in Vero cells. Type of data set: cell-based. To be noted: Dengue virus, read-out: Activity (anti-dengue 2 viral activity, EC50).
Data set [2] can be described thus: Cytotoxicity (cell proliferation assay, MTT or Alamar Blue). Type of data set: cell-based. To be noted: flag printed in the Activity column of Table 1. As for the experimental part:
(§1) Initially, the chemical structures of the hit compounds were examined for chemical tractability. […] Hits that passed this medicinal chemistry filter were evaluated for their potency. Compound potency was determined by evaluating inhibitory activity across a broad range of concentrations. Nonlinear regression was used to generate best-fit inhibition curves and to calculate the 50% effective concentration (EC50). The selectivity or specificity of a given compound is typically expressed as a ratio of its cytotoxicity to its biological effect. A cell proliferation assay is used to calculate a 50% cytotoxicity concentration (CC50); the ratio of this value to the EC50 is referred to as the therapeutic index (T.I.=CC50/EC50). Two types of assays have been used to determine cytotoxicity, both of which are standard methods for quantitating the reductase activity produced in metabolically active cells (30). One is a colorimetric method that measures the reduction of 3-(4,5-dimethylthiazol-2-yl)-2,5-diphenyl-tetrazolium bromide (MTT), and the other uses fluorimetry to measure the reduction of resazurin (Alamar Blue). […] Verification that these compounds act against each of the four serotypes of dengue was done with yield assays carried out at several drug concentrations, and the titer determined for each.
For orientation: Resazurin is reduced to fluorescent resorufin, in cell work by metabolically active cells.

Data set [3] has as its system dengue. The note with it: mouse model; cited from earlier work.
For data set [4], the system named is dengue. To be noted: cited from earlier work.
For data set [5], the system named is all four serotypes of dengue. Briefly: Yield assay against each serotype of dengue virus in vero cells. The class given is cell-based. To be noted: FIG. 1. As for the experimental part:
as §1, with “each. […]” for “each.”

Setting [6] is: Dengue-2 strain New Guinea C, Vero cells, MOI 0.1, harvested 48 hours post infection, viral yield.

Molecules are shown by their SMILES. Like-named read-outs stand apart in the source and are kept apart here.

As for `COc1ccccc1C(=O)C1CCCN(C(=O)CSc2nc3cc(C)ccc3[nH]2)C1` (centres unmarked) [Compound 12, 1-[3-(2-Methoxy-benzoyl)-piperidin-1-yl]-2-(5-methyl-1H-benzoimidazol-2-ylsulfanyl)-ethanone], the EC50 (in general, the concentration giving half of the maximal effect) in data set [1] (setting [6]) lay in the range of 1 to 10 µM. Also, the “toxic (flag beside activity class)” value in data set [2] is “toxic”.

As to `O=C1CC(Sc2nc3ccccc3s2)C(=O)N1Cc1ccccc1` (centres unmarked) [Compound 4, 3-(Benzothiazol-2-ylsulfanyl)-1-benzyl-pyrrolidine-2,5-dione], in data set [1] (setting [6]), the EC50 was < 1 µM. In addition, in data set [2], the “toxic (flag beside activity class)” value was “toxic”. For `NC(=O)c1ncn([C@@H]2O[C@H](CO)[C@@H](O)[C@H]2O)n1` [ribavirin], the protection against dengue entry in the data set with dengue [3] and in the data set with dengue [4] (rhesus monkey model) was “did not show protection against dengue” in each case. Besides, the adverse effects induced entry in the data set with dengue [4] (animal model not specified in the sentence (mouse or rhesus monkey)) was “induced anemia and thrombocytosis”.

For the molecule `O=C(CSc1nc2ccccc2[nH]1)N1CCN(c2ccc(F)cc2)CC1` [Compound 8, 2-(1H-Benzoimidazol-2-ylsulfanyl)-1-[4-(4-fluoro-phenyl)-piperazin-1-yl]-ethanone], the EC50 in data set [1] (Vero, 48 h) was in the range of 1 to 10 µM.

`NC(=O)C1CCN(C(=O)CSc2nc3ccccc3[nH]2)CC1` [Compound 68, 1-[2-(1H-Benzoimidazol-2-ylsulfanyl)-acetyl]-piperidine-4-carboxylic acid amide]: the EC50 in data set [1] (Vero, 48 h) was > 25 µM. Consider `O=C(CSc1nc2ccccc2o1)N1CCN(c2ccc(Cl)cc2)CC1` [Compound 80, 2-(Benzooxazol-2-ylsulfanyl)-1-[4-(4-chloro-phenyl)-piperazin-1-yl]-ethanone], for which the EC50 in data set [1] (Vero, 48 h) is > 25 µM. As to `CCN(CC)C(=O)CSc1nc2cc(C)ccc2[nH]1` [Compound 62, N,N-Diethyl-2-(5-methyl-1H-benzoimidazol-2-ylsulfanyl)-acetamide], the EC50 in data set [1] (setting [6]) is > 25 µM. Turning to `O=C(Nc1ccc2nc(SCC(=O)N3CCOCC3)sc2c1)c1ccccc1Br` [Compound 20, 2-Bromo-N-[2-(2-morpholin-4-yl-2-oxo-ethylsulfanyl)-benzothiazol-6-yl]-benzamide], the EC50 in data set [1] (Vero, 48 h) was > 25 µM.

For `O=C(CSc1nc2cc(Cl)ccc2o1)N1CCOCC1` [Compound 74, 2-(5-Chloro-benzooxazol-2-ylsulfanyl)-1-morpholin-4-yl-ethanone], the EC50 in data set [1] (Vero, 48 h) was > 25 µM. Consider `NC(=O)C1(N2CCCCC2)CCN(C(=O)CSc2nc3ccccc3o2)CC1` [Compound 3, 1′-[2-(Benzooxazol-2-ylsulfanyl)-acetyl]-[1,4′]bipiperidinyl-4′-carboxylic acid amide], for which the “activity against dengue serotypes” value in data set [5] is listed as “activity against all four serotypes of dengue”. Also, the EC50 in data set [1] (Vero, 48 h) was < 1 µM. In the case of `O=C(CSc1nc2ccc(/N=C/c3ccc(Br)cc3)cc2s1)N1CCOCC1` [Compound 17, 2-(6-{[1-(4-Bromo-phenyl)-meth-(E)-ylidene]-amino}-benzothiazol-2-ylsulfanyl)-1-morpholin-4-yl-ethanone], the EC50 in data set [1] (setting [6]) is > 25 µM. On to `O=C(CSc1nc2ccccc2o1)N1CCc2ccccc2C1` [Compound 47, 2-(Benzooxazol-2-ylsulfanyl)-1-(3,4-dihydro-1H-isoquinolin-2-yl)-ethanone], for which, in data set [1] (setting [6]), the EC50 is > 25 µM.

The record behind these values is patent publication US9029376B2, “Small molecule inhibitors for the treatment or prevention of dengue virus infection” (Siga Technologies, Inc., priority 2008, dated 2015).
